# Experimental data as given in patent publication US11524010B2, “Substituted quinazoline sulfonamides as thioredoxin interacting protein (TXNIP) inhibitors” (SOUTHERN RESEARCH INSTITUTE, priority 2017, dated 2022).
# Columns and labels:
# [1] = INS-1 cell viability (Cell Titer-Glo, ATP); format: cell-based, Rat; details: rat, INS-1 cells, 72 hrs treatment
# Procedure: INS-1 cell viability was determined based on quantification of ATP using Cell Titer-Glo Luminescent Cell Viability Assay kit (Promega #G7572), which indicates the presence of metabolically active cells. Briefly, INS-1 cells were seeded into 96-well plates at a cell density of 4.5×10^4 and 3.5×10^4 cells per well and incubated overnight at 37° C. with 5% CO2. On the following day, cells were treated with compounds for 24 hrs and 72 hrs respectively. Cell Titer-Glo reagent was added to the cells and Luminescence was acquired on Synergy 4 Reader ([…]).
# [2] = system: TXNIP; assay: Inhibition of glucose-induced endogenous TXNIP expression in INS-1 cells (qRT-PCR); format: cell-based, Rat; details: 25 mM glucose; for inhibition at 1.5 µM / inhibition at 12.5 µM: Rattus norvegicus, INS1, 24 h
# Procedure: The Rat INS-1 cell line was obtained from UAB and maintained in RPMI-1640 (Invitrogen #11875) supplemented with 10% fetal bovine serum (FBS), 100 U/ml penicillin and […] streptomycin, 10 mM HEPES, 1 mM Sodium Pyruvate, 50 μM 2-Mercaptoethanol, and 11.1 mM Glucose in a humidified incubator with a 5% C02 atmosphere at 37° C. 4×10^4 cells per well were seeded to 96-well plate and incubated at 37° C. overnight. A subset of the cells were then cultured in medium with 5 mM Glucose for 24 hrs and then treated in medium with 25 mM glucose with or without compounds to be tested for another 24 hrs.
# For the primary high throughput screening (HTS) assay, stably transfected, monoclonal INS-1 cells were split using Trypsin (2 ml per T75 flask) and seeded at a density of 10^4/well in a 384-well plate and incubated overnight at low, 5 mM glucose. The next day, the medium was changed to high glucose (25 mM) or high glucose plus the small molecules to be tested and luciferase assays were performed 24 h later. […] For secondary screens, total RNA was extracted from 96-well cultured cells using RNeasy 96 kit (Qiagen #74181) following the manufacturer's protocol using spin technology. Then a one-step qRT-PCR amplification was performed using QuantiFast SYBR Green RT-PCR kit (Qiagen #204154) and was carried out in a 10 μl reaction which consisted of 2 μl RNA, 0.5 μM each of primers (Rat TXNIP 5′ primer: […] (SEQ ID NO:1) and Rat TXNIP 3′ primer: […] (SEQ ID NO:2); Or Rat 18S rRNA 5′ primer: […] (SEQ ID NO:3) and Rat 18S rRNA 3′ primer: […]) (SEQ ID NO:4), 5 μl 2×SYBR Green Master Mix, 0.1 μl 10× QuantiFast RT Mix. The SYBR Green assay was performed using a LightCycler 480 II (Roche Applied Science) with an initial incubation at 50° C. for 10 min for RT followed by denaturation at 95° C. for 5 min. Forty cycles of amplification were performed using a thermal cycling profile of 95° C. for 10s, 60° C. for 30 s. Subsequently, a melting curve was recorded by holding at 95° C. for 60 s, cooling to 60° C. for 60 s, and then heating at 0.11° C./s up to 95° C. The data was collected and analyzed using the LightCycler 480 Software Release 1.5.0 SP3. The relative amount of TXNIP mRNA was normalized to 18 s rRNA level as a housekeeping gene, and the data was analyzed according to the 2^−ΔΔCT method (1). The transformed data was expressed as % inhibition and compound IC50 calculated by a 4-parameter logistic fit of the data using GraphPad Prism 7.
SMILES,CC50 at 72 h [1] [µM],inhibition at 1.5 µM ([2]; 1.5 μM compound) [%],inhibition at 12.5 µM ([2]; 12.5 μM compound) [%],"TXNIP % Inhibition at 1.5 μM ([2]; 1.5 μM compound, 24 hrs) [%]","TXNIP % Inhibition at 12.5 μM ([2]; 12.5 μM compound, 24 hrs) [%]"
CS(=O)(=O)NC1CN(c2ncnc3ccc(F)cc23)C1 [Compound 52],> 100,4,5,–,–
"CS(=O)(=O)NCC1CCCN(c2ncnc3cc(C#N)c(F)cc23)C1 (centres unmarked) [Compound 20, N-((1-(7-cyano-6-fluoroquinazolin-4-yl)piperidin-3-yl)methyl)methanesulfonamide]",> 100,19,30,–,–
"CS(=O)(=O)NCC1CCCN(c2ncnc3cc(C(F)(F)F)ccc23)C1 (centres unmarked) [Compound 12, N-((1-(7-(trifluoromethyl)quinazolin-4-yl)piperidin-3-yl)methyl)methanesulfonamide]",> 100,0,13,–,–
"CS(=O)(=O)NC1CCCN(c2ncnc3ccccc23)C1 (centres unmarked) [Compound 31, N-(1-(quinazolin-4-yl)piperidin-3-yl)methanesulfonamide]",67,17,82,–,–
"CS(=O)(=O)NCC1CN(c2ncnc3ccc(F)cc23)CCO1 (centres unmarked) [Compound 46, N-((4-(6-fluoroquinazolin-4-yl)morpholin-2-yl)methyl)methanesulfonamide]",> 100,0,55,–,–
"CC(C)(C)C(=O)Nc1ccc2ncnc(N3CCCC(CNS(C)(=O)=O)C3)c2c1 (centres unmarked) [Compound 25, N-(4-(3-(methylsulfonamidomethyl)piperidin-1-yl)quinazolin-6-yl)pivalamide]",> 100,28,51,–,–
"CS(=O)(=O)NCC1CCCN(c2ncnc3cccc(Cl)c23)C1 (centres unmarked) [Compound 6, N-((1-(5-chloroquinazolin-4-yl)piperidin-3-yl)methyl)methanesulfonamide]",> 100,29,43,–,–
"CS(=O)(=O)NCC1CCCN(c2ncnc3ccc(NC(=O)c4ccccn4)cc23)C1 (centres unmarked) [Compound 28, N-(4-(3-(methylsulfonamidomethyl)piperidin-1-yl)quinazolin-6-yl)picolinamide]",> 100,4,5,–,–
"O=S(=O)(NCC1CCCN(c2ncnc3ccc(C(F)(F)F)cc23)C1)c1ccc(Cl)cc1 (centres unmarked) [Compound 56, 4-chloro-N-((1-(6-(trifluoromethyl)quinazolin-4-yl)piperidin-3-yl)methyl)benzenesulfonamide]",17,19,30,–,–
"O=S(=O)(NCC1CCCN(c2ncnc3ccc(C(F)(F)F)cc23)C1)c1ccccc1 (centres unmarked) [Compound 54, N-((1-(6-(trifluoromethyl)quinazolin-4-yl)piperidin-3-yl)methyl)benzenesulfonamide]",17,19,53,–,–
"CS(=O)(=O)NCC1CCCCN1c1ncnc2cc(C#N)c(F)cc12 (centres unmarked) [Compound 43, N-((1-(7-cyano-6-fluoroquinazolin-4-yl)piperidin-2-yl)methyl)methane-sulfonamide]",> 100,0,16,–,–
"CS(=O)(=O)NCC1CCCN(c2ncnc3cc(C(N)=O)c(F)cc23)C1 (centres unmarked) [Compound 21, 6-fluoro-4-(3-(methylsulfonamidomethyl)piperidin-1-yl)quinazoline-7-carboxamide]",> 100,0,12,–,–
"Cc1cc2ncnc(N3CCCC(CNS(C)(=O)=O)C3)c2cc1F (centres unmarked) [Compound 22, N-((1-(6-fluoro-7-methylquinazolin-4-yl)piperidin-3-yl)methyl)methanesulfonamide]",> 100,15,34,–,–
"CS(=O)(=O)NCC1CCCN(c2ncnc3ccc(N4CCOCC4)cc23)C1 (centres unmarked) [Compound 24, N-((1-(6-morpholinoquinazolin-4-yl)piperidin-3-yl)methyl)methanesulfonamide]",> 100,20,20,–,–
"CS(=O)(=O)NCC1CCCN(c2ncnc3cc(F)c(C(F)(F)F)cc23)C1 (centres unmarked) [Compound 30, N-((1-(7-fluoro-6-(trifluoromethyl)quinazolin-4-yl)piperidin-3-yl)methyl)methane-sulfonamide]",> 100,9,33,–,–
"CS(=O)(=O)NCC1CCCN(c2ncnc3cc(F)c(F)cc23)C1 (centres unmarked) [Compound 7, N-((1-(6,7-difluoroquinazolin-4-yl)piperidin-3-l)methyl)methanesulfonamide]",> 100,40,54,–,–
"CS(=O)(=O)NCC1CCCN(c2ncnc3cc(N4CCOCC4)c(F)cc23)C1 (centres unmarked) [Compound 23, N-((1-(6-fluoro-7-morpholinoquinazolin-4-yl)piperidin-3-yl)methyl)methanesulfonamide]",> 100,0,23,–,–
"CS(=O)(=O)NCC1CCCN(c2ncnc3cc(O)c(C(F)(F)F)cc23)C1 (centres unmarked) [Compound 63, N-((1-(7-hydroxy-6-(trifluoromethyl)quinazolin-4-yl)piperidin-3-yl)methyl)methanesulfonamide]",> 100,10,5,–,–
"CS(=O)(=O)NCC1CCCN(c2nc(N3CCOCC3)nc3ccccc23)C1 (centres unmarked) [Compound 17, N-((1-(2-morpholinoquinazolin-4-yl)piperidin-3-yl)methyl)methanesulfonamide]",> 100,0,15,–,–
"CS(=O)(=O)NC1CCCN(c2ncnc3cc(C#N)c(F)cc23)C1 (centres unmarked) [Compound 36, N-(1-(7-cyano-6-fluoroquinazolin-4-yl)piperidin-3-yl)methanesulfonamide]",35,0,34,–,–
"CS(=O)(=O)NCC1CCCN(c2ncnc3cc(F)c(C#N)cc23)C1.Cl (centres unmarked) [Compound 29a, N-((1-(6-cyano-7-fluoroquinazolin-4-yl)piperidin-3-yl)methyl)methanesulfonamide hydrochloride]",–,–,–,35,55
"CS(=O)(=O)NCC1CCCN(c2ncnc3cc(F)ccc23)C1 (centres unmarked) [Compound 4, N-((1-(7-fluoroquinazolin-4-yl)piperidin-3-yl)methyl)methanesulfonamide]",> 100,24,16,–,–
"COc1ccc2ncnc(N3CCCC(CN(C(C)C)S(=O)(=O)c4ccccc4)C3)c2c1 (centres unmarked) [Compound 41, N-isopropyl-N-((1-(6-methoxyquinazolin-4-yl)piperidin-3-yl)methyl)benzene-sulfonamide]",7,36,65,–,–
"CS(=O)(=O)NC1CCCN(c2ncnc3cc(F)c(C(F)(F)F)cc23)C1 (centres unmarked) [Compound 39, N-(1-(7-fluoro-6-(trifluoromethyl)quinazolin-4-yl)piperidin-3-yl)methanesulfonamide]",> 100,7,28,–,–
"CS(=O)(=O)NCC1CCCN(c2ncnc3ccc(C(=O)O)cc23)C1 (centres unmarked) [Compound 19, 4-(3-(methylsulfonamidomethyl)piperidin-1-yl)quinazoline-6-carboxylic acid]",> 100,0,5,–,–
"CS(=O)(=O)NCC1CCCN(c2ncnc3ccc(-c4ccccn4)cc23)C1 (centres unmarked) [Compound 27, N-((1-(6-(pyridin-2-yl)quinazolin-4-yl)piperidin-3-yl)methyl)methanesulfonamide]",70,9,4,–,–
